Laboratory results from ChEMBL document CHEMBL5550219, “Distinct Amino Acid-Based PROTACs Target Oncogenic Kinases for Degradation in Non-Small Cell Lung Cancer (NSCLC)” (J Med Chem, 2024).
Activity calls are given as the source filed them. No cut-off for these calls is given here.

Assays:
[1] = system: A549; assay: Effect on wild-type EGFR expression in human A549 cells upto 20 uM incubated for 72 hrs by immunoblot analysis; format: functional, cell-based
[2] = system: NCI-H1975; assay: Induction of cell cycle arrest at G1 phase in human NCI-H1975 cells at 10 uM incubated for 72 hrs by flow cytometry (reference value: 44.5 +/- 1.5 %); format: functional
[3] = system: NCI-H3122; assay: Induction of cell cycle arrest at S phase in human NCI-H3122 cells at 10 uM incubated for 48 hrs by flow cytometry (reference value: 25.7 +/- 0.4 %); format: functional
[4] = system: SK-N-BE(2); assay: Effect on wild-type ALK in human SK-N-BE(2) cells upto 20 uM incubated for 48 hrs by immunoblot analysis; format: functional, cell-based
[5] = system: PC-9; assay: Effect on EGFR del19 mutant expression in human PC-9 cells upto 20 uM incubated for 72 hrs by immunoblot analysis; format: functional, cell-based
[6] = system: NCI-H1299; assay: Effect on wild-type EGFR expression in human NCI-H1299 cells upto 20 uM incubated for 72 hrs by immunoblot analysis; format: functional, cell-based
[7] = system: NCI-H1975; assay: Induction of apoptosis in human NCI-H1975 cells assessed as increase in early apoptotic cells incubated for 72 hrs by Annexin V-FITC/PI staining based flow cytometry; format: functional, cell-based; settings: dose 10-20 µM
[8] = system: NCI-H1975; assay: Induction of cell cycle arrest at S phase in human NCI-H1975 cells at 10 uM incubated for 72 hrs by flow cytometry (reference value: 12.1 +/- 0.7 %); format: functional
[9] = system: NCI-H3122; assay: Inhibition of cell viability in human NCI-H3122 cells harboring sgGID4 incubated for 48 hrs by CCK8 assay; format: functional, cell-based
[10] = AUC (0 to t) in mouse at 2 mg/kg, iv measured for 12 hrs by HPLC analysis; format: ADME, organism-based; settings: in vivo
[11] = system: NCI-H1975; assay: Induction of cell cycle arrest at G2 phase in human NCI-H1975 cells at 10 uM incubated for 72 hrs by flow cytometry (reference value: 43.4 +/- 1.5 %); format: functional
[12] = […] measured for 12 hrs by HPLC analysis; format: ADME, organism-based; settings: in vivo
[13] = system: NCI-H1975; assay: Induction of cell cycle arrest at G1 phase in human NCI-H1975 cells at 20 uM incubated for 72 hrs by flow cytometry (reference value: 44.5 +/- 1.5 %); format: functional
[14] = system: NCI-H3122; assay: Induction of apoptosis in human NCI-H3122 cells assessed as increase in late apoptotic cells incubated for 48 hrs by Annexin V-FITC/PI staining based flow cytometry; format: functional, cell-based; settings: dose 5-10 µM
[15] = AUC (0 to t) in mouse at 50 mg/kg, ip measured for 12 hrs by HPLC analysis; format: ADME, organism-based; settings: in vivo
[16] = system: NCI-H3122; assay: Induction of cell cycle arrest at G2 phase in human NCI-H3122 cells at 5 uM incubated for 48 hrs by flow cytometry (reference value: 9.4 +/- 0.5 %); format: functional
[17] = system: NCI-H3122; assay: Induction of cell cycle arrest at S phase in human NCI-H3122 cells at 5 uM incubated for 48 hrs by flow cytometry (reference value: 25.7 +/- 0.4 %); format: functional
[18] = system: NCI-H3122; assay: Induction of apoptosis in human NCI-H3122 cells assessed as increase in early apoptotic cells incubated for 48 hrs by Annexin V-FITC/PI staining based flow cytometry; format: functional, cell-based; settings: dose 5-10 µM
[19] = Tmax in mouse at 50 mg/kg, ip measured for 12 hrs by HPLC analysis; format: ADME, organism-based; settings: in vivo
[20] = system: NCI-H3122; assay: Inhibition of cell viability in human NCI-H3122 cells incubated for 48 to 72 hrs by CCK8 assay
[21] = system: NCI-H1975; assay: Inhibition of cell viability in human NCI-H1975 cells incubated for 48 to 72 hrs by CCK8 assay
[22] = system: HEK-293T; assay: Inhibition of cell viability in HEK293T cells upto 20 uM incubated for 48 hrs by CCK8 assay; format: toxicity, cell-based; settings: human
[23] = system: NCI-H1975; assay: Induction of cell cycle arrest at S phase in human NCI-H1975 cells at 20 uM incubated for 72 hrs by flow cytometry (reference value: 12.1 +/- 0.7 %); format: functional
[24] = system: NCI-H1975; assay: Induction of cell cycle arrest at G2 phase in human NCI-H1975 cells at 20 uM incubated for 72 hrs by flow cytometry (reference value: 43.4 +/- 1.5 %); format: functional
[25] = system: NCI-H3122; assay: Induction of cell cycle arrest at G2 phase in human NCI-H3122 cells at 10 uM incubated for 48 hrs by flow cytometry (reference value: 9.4 +/- 0.5 %); format: functional
[26] = Cmax in mouse at 2 mg/kg, iv measured for 12 hrs by HPLC analysis; format: ADME, organism-based; settings: in vivo
[27] = system: NCI-H3122; assay: Induction of cell cycle arrest at G1 phase in human NCI-H3122 cells at 10 uM incubated for 48 hrs by flow cytometry (reference value: 64.9 +/- 0.6 %); format: functional
[28] = Half life in mouse at 2 mg/kg, iv measured for 12 hrs by HPLC analysis; format: ADME, organism-based; settings: in vivo
[29] = Half life in mouse at 50 mg/kg, ip measured for 12 hrs by HPLC analysis; format: ADME, organism-based; settings: in vivo
[30] = system: SH-SY5Y; assay: Effect on ALK F1174L mutant in human SH-SY5Y cells upto 20 uM incubated for 48 hrs by immunoblot analysis; format: functional, cell-based
[31] = system: NCI-H1975; assay: Induction of apoptosis in human NCI-H1975 cells assessed as increase in late apoptotic cells incubated for 72 hrs by Annexin V-FITC/PI staining based flow cytometry; format: functional, cell-based; settings: dose 10-20 µM
[32] = Cmax in mouse at 50 mg/kg, ip measured for 12 hrs by HPLC analysis; format: ADME, organism-based; settings: in vivo
[33] = system: NCI-H1975; assay: Inhibition of cell viability in human NCI-H1975 cells harboring sgGID4 incubated for 72 hrs by CCK8 assay; format: functional, cell-based
[34] = system: NCI-H3122; assay: Induction of cell cycle arrest at G1 phase in human NCI-H3122 cells at 5 uM incubated for 48 hrs by flow cytometry (reference value: 64.9 +/- 0.6 %); format: functional
[35] = Tmax in mouse at 2 mg/kg, iv measured for 12 hrs by HPLC analysis; format: ADME, organism-based; settings: in vivo

For `COc1cc(N2CCN(C(=O)CCOCCOCCOCCNC(=O)[C@@H]3CCCN3)CC2)ccc1Nc1ncc(Cl)c(Nc2ccccc2P(C)(C)=O)n1`, which Activity [1] is on record?
The Activity was “inactive”.

And the Activity [2]?
Its Activity is 57.3%.

What about the Activity [3] of the same molecule?
Its Activity is 3.9%.

What about the Activity [4] of the same molecule?
The Activity was “inactive”.

And the Activity [5]?
The Activity was “inactive”.

What about the Activity [6] of the same molecule?
Its Activity is “inactive”.

And the Activity [7]?
The Activity was “Dose-Dependent Effect”.

And the Activity [8]?
Its Activity is 10.2%.

And the inhibition [9]?
The inhibition was “inactive”.

And the AUC(0-t) at 12 h [10]?
The AUC(0-t) at 12 h was 6080 ng·h/mL.

And the Activity [11]?
Its Activity is 32.5%.

And the bioavailability [12]?
Its bioavailability is 53.2%.

And the Activity [13]?
Its Activity is 78.4%.

And the Activity [14]?
The Activity was “Dose-Dependent Effect”.

What about the AUC(0-t) at 12 h [15] of the same molecule?
The AUC(0-t) at 12 h was 80800 ng·h/mL.

What about the Activity [16] of the same molecule?
Its Activity is 8.1%.

And the Activity [17]?
The Activity was 7.3%.

What about the Activity [18] of the same molecule?
The Activity was “Dose-Dependent Effect”.

What about the Tmax [19] of the same molecule?
The Tmax was 0.5 h.

What about the IC50 [20] of the same molecule?
The IC50 was 0.16 µM.

And the IC50 [21]?
Its IC50 is 8.8 µM.

What about the Activity [22] of the same molecule?
The Activity was “Non-Toxic”.

What about the Activity [23] of the same molecule?
The Activity was 5.7%.

What about the Activity [24] of the same molecule?
The Activity was 15.9%.

What about the Activity [25] of the same molecule?
The Activity was 5.5%.

And the Cmax [26]?
The Cmax was 3720 ng/mL.

And the Activity [27]?
Its Activity is 90.4%.

And the half-life [28]?
Its half-life is 2.87 h.

What about the half-life [29] of the same molecule?
Its half-life is 5.18 h.

And the Activity [30]?
Its Activity is “inactive”.

And the Activity [31]?
The Activity was “Dose-Dependent Effect”.

And the Cmax [32]?
The Cmax was 33000 ng/mL.

What about the inhibition [33] of the same molecule?
Its inhibition is “inactive”.

And the Activity [34]?
The Activity was 84.2%.

And the Tmax [35]?
Its Tmax is 4.98 min.
